Format in all cases: in vivo, C57BL/6 mice
For experiment [1], the system named is colorectal cancer (MC38). The experiment is described as follows: Colorectal cancer (MC38) tumor-bearing model, GSK583 combined with GEM. Particulars: GSK583 1 mg/kg; for tumor growth compared to the vehicle control group: MC38 s.c. in C57BL/6 mice, tumors 50 to 100 mm^3 at start, GEM 40 mg/kg i.v. once every 4 days, 4 doses, to DAY 14. How it is done: The test substance GEM was prepared in normal saline, and GSK583 was prepared as a 20×DMSO stock solution, which was diluted with normal saline containing 5% polyoxyethylene castor oil (Cremophor EL) to the administration concentration before use. Experimental animals and tumor strains: SPF grade male wild-type C57BL/6 mice, 6 to 8 weeks old, purchased from Beijing Vital River Laboratory Animal Technology Co., Ltd. Cells used in the experiment: murine colorectal cancer cells (MC38), purchased from Union Cell Bank (China). According to the method shown in (A and B of FIG. 8), the mice were subcutaneously inoculated with MC38 cells with a concentration of 2×10^6 cells/mL and 0.1 mL/mouse. When the tumor grew to a volume within the range of 50 to 100 mm^3, the mice were randomly divided into 4 groups with 8 mice in each group based on tumor volume, and the administration was started with the following regimen: (i) vehicle control group; (ii) GSK583 (1 mg/kg) group; (iii) GEM (40 mg/kg) group; (iv) GSK583 (1 mg/kg)+GEM (40 mg/kg) group. GEM, GSK583, and vehicle were administered intravenously once every 4 days for a total of 4 doses. The day of grouping and administration was recorded as DAY 0. During the administration, the animals were weighed every 3 days. The long diameter and short diameter of the tumor were measured with a vernier caliper. The tumor size was calculated by the formula: (½)× long diameter× (short diameter) 2. The experiment was terminated on DAY 14. After the mice were euthanized and dissected, the tumor was weighed and photographed, and the tumor inhibition rate was calculated.

Experiment [2] deals with melanoma (B16F10). The experiment is described as follows: Melanoma (B16F10) tumor-bearing model, GSK583 combined with GEM. The note with it: GSK583 1 mg/kg; for tumor growth compared to the vehicle control group: B16-F10 s.c. in C57BL/6 mice, GEM 60 mg/kg i.v. once every 4 days, 4 doses, to DAY 15. The method, then:
The test substance GEM was prepared in normal saline, and GSK583 was prepared as a 20×DMSO stock solution, which was diluted with normal saline containing 5% polyoxyethylene castor oil (Cremophor EL) to the administration concentration before use. Experimental animals and tumor strains: SPF grade male wild-type C57BL/6 mice, 6 to 8 weeks old, purchased from Beijing Vital River Laboratory Animal Technology Co., Ltd. Cells used in the experiment: murine melanoma cells (B16-F10), purchased from ATCC. Mice were randomly divided into 4 groups with 8 mice in each group based on body weight according to the method shown in (A and B of FIG. 6), namely: (i) vehicle control group; (ii) GSK583 (1 mg/kg) group; (iii) GEM (60 mg/kg) group; (iv) GSK583 (1 mg/kg)+GEM (60 mg/kg) group. GEM, GSK583, and vehicle control were administered intravenously once every 4 days for a total of 4 doses. The mice were subcutaneously inoculated with B16-F10 cells with a concentration of 2× 10^6 cells/mL and 0.1 mL/mouse, and the day of inoculation was recorded as DAY 0. The administration was started on DAY 1. During the administration, the animals were weighed every 2 days. The long diameter and short diameter of the tumor were measured with a vernier caliper. The tumor size was calculated by the formula: (½)× long diameter×(short diameter) 2. The experiment was terminated on DAY 15. After the mice were euthanized and dissected, the tumor was weighed and photographed, and the tumor inhibition rate was calculated.

The test system of experiment [3] is melanoma (B16F10). The experiment is described as follows: Melanoma (B16F10) tumor-bearing model, GSK583 combined with PTX. Particulars: B16-F10 s.c. in C57BL/6 mice; GSK583 1 mg/kg, PTX 10 mg/kg i.v. once every 4 days, 4 doses; to DAY 15. How it is done: Both of the test substances PTX (Sigma) and GSK583 (MCE) were prepared as a 20× DMSO stock solution, which was diluted with normal saline containing 5% (v/v) polyoxyethylene castor oil (Cremophor EL) to the administration concentration before use. Experimental animals and tumor strains: SPF grade male wild-type C57BL/6 mice, 6 to 8 weeks old, purchased from Beijing Vital River Laboratory Animal Technology Co., Ltd. Cells used in the experiment: murine melanoma cell line (B16-F10), purchased from ATCC. Mice were randomly divided into 4 groups with 8 mice in each group based on body weight according to the method shown in (A of FIG. 1 and B of FIG. 1), namely: (i) vehicle control group; (ii) GSK583 (1 mg/kg) group; (iii) PTX (10 mg/kg) group; (iv) GSK583 (1 mg/kg)+PTX (10 mg/kg) group. PTX, GSK583, and vehicle were administered intravenously once every 4 days for a total of 4 doses. The mice were subcutaneously inoculated with B16-F10 cells with a concentration of 2× 10^6 cells/mL and 0.1 mL/mouse, and the day of inoculation was recorded as DAY 0. The administration was started on DAY 1. During the administration, the animals were weighed every 2 days. The long diameter and short diameter of the tumor were measured with a vernier caliper. The tumor size was calculated by the formula: (½)×long diameter×(short diameter) 2. The experiment was terminated on DAY 15. After the mice were euthanized and dissected, the tumor was weighed and the tumor inhibition rate was calculated.

Experiment [4] concerns colorectal cancer (MC38). Kind of experiment: Colorectal cancer (MC38) tumor-bearing model, GSK583 combined with OXA. The note with it: GSK583 1 mg/kg; for tumor growth compared to the vehicle control group: MC38 s.c. in C57BL/6 mice, tumors 100 mm^3 at start, OXA 6 mg/kg i.v. once every 4 days, 4 doses, to DAY 14.
Method: According to the method shown in (A and B of FIG. 10), the mice were subcutaneously inoculated with MC38 cells with a concentration of 5×10^6 cells/mL and 0.1 mL/mouse. […] OXA, GSK583, and vehicle were administered intravenously once every 4 days for a total of 4 doses. The day of grouping and administration was recorded as DAY 0. During the administration, the animals were weighed every 3 days. The long diameter and short diameter of the tumor were measured with a vernier caliper. The tumor size was calculated by the formula: (½)×long diameter×(short diameter) 2. The experiment was terminated on DAY 14. After the mice were euthanized and dissected, the tumor was weighed and photographed, and the tumor inhibition rate was calculated.
Experiment [5] relates to melanoma (B16F10). The experiment is described as follows: Melanoma (B16F10) tumor-bearing model, GSK583 combined with DTX. Particulars: for tumor growth compared to the vehicle control group: B16-F10 s.c. in C57BL/6 mice, GSK583 1 mg/kg i.v. every 4 days x4, DTX 5 mg/kg i.v. every 7 days x3, to DAY 16. How it is done:
Both of the test substances DTX and GSK583 were prepared as a 20×DMSO stock solution, which was diluted with normal saline containing 5% polyoxyethylene castor oil (Cremophor EL) to the administration concentration before use.
Experimental animals and tumor strains: SPF grade male wild-type C57BL/6 mice, 6 to 8 weeks old, purchased from Beijing Vital River Laboratory Animal Technology Co., Ltd. Cells used in the experiment: murine melanoma cells (B16-F10), purchased from ATCC.
Mice were randomly divided into 4 groups with 8 mice in each group based on body weight according to the method shown in (A and B of FIG. 4), namely: (i) vehicle control group; (ii) GSK583 (1 mg/kg) group; (iii) Docetaxel (DTX; 5 mg/kg) group; (iv) GSK583 (1 mg/kg)+DTX (5 mg/kg) group. DTX was administered intravenously once every 7 days for a total of 3 doses; GSK583 and vehicle control were administered intravenously once every 4 days for a total of 4 doses. The mice were subcutaneously inoculated with B16-F10 cells with a concentration of 2× 10^6 cells/mL and 0.1 mL/mouse, and the day of inoculation was recorded as DAY 0. The administration was started on DAY 1. During the administration, the animals were weighed every 2 days. The long diameter and short diameter of the tumor were measured with a vernier caliper. The tumor size was calculated by the formula: (½)×long diameter×(short diameter) 2. The mice were euthanized on DAY 16, and after dissection, the tumor was weighed and the tumor inhibition rate was calculated.

With `CC(C)(C)S(=O)(=O)c1ccc2nccc(Nc3n[nH]c4ccc(F)cc34)c2c1` [GSK583], the “tumor growth compared to the vehicle control group” value with colorectal cancer (MC38) [1], with melanoma (B16F10) [2], in the experiment on melanoma (B16F10) [3], with colorectal cancer (MC38) [4] and in the experiment on melanoma (B16F10) [5] was “no significant inhibitory effect on tumor growth” throughout.
In the case of `O=C1[O][Pt]2([NH][C@@H]3CCCC[C@H]3[NH]2)[O]C1=O` [OXA, Oxaliplatin], in the experiment on colorectal cancer (MC38) [4] (MC38 in C57BL/6 mice, OXA 6 mg/kg i.v. every 4 days x4), the “growth rate of tumor volume” value was “no significant inhibitory effect”. In addition, the “tumor growth compared to the vehicle control group” value with colorectal cancer (MC38) [4] is listed as “no significant inhibitory effect”.
Turning to `Nc1ccn([C@@H]2O[C@H](CO)[C@@H](O)C2(F)F)c(=O)n1` [GEM, Gemcitabine], the “growth rate of tumor volume” value in the experiment with colorectal cancer (MC38) [1] (MC38 in C57BL/6 mice, GEM 40 mg/kg i.v. every 4 days x4) is on record as “no significant inhibitory effect”; with melanoma (B16F10) [2] (B16-F10 in C57BL/6 mice, GEM 60 mg/kg i.v. every 4 days x4, vs control group) it was “slower than that of the control group”. Moreover, the “tumor growth compared to the vehicle control group” value with colorectal cancer (MC38) [1] is “no significant inhibitory effect”; with melanoma (B16F10) [2], “significantly inhibited tumor growth”. Moreover, the “tumor weight at the end of the administration” value in the experiment with melanoma (B16F10) [2] (B16-F10 in C57BL/6 mice, GEM 60 mg/kg i.v. every 4 days x4, DAY 15, vs control group) is “significantly and statistically lower than that of the control group”.
With `CC(=O)O[C@@]12CO[C@@H]1C[C@H](O)[C@@]1(C)C(=O)[C@H](O)C3=C(C)[C@@H](OC(=O)[C@H](O)[C@@H](NC(=O)OC(C)(C)C)c4ccccc4)C[C@@](O)([C@@H](OC(=O)c4ccccc4)[C@H]21)C3(C)C` [DTX, Docetaxel], the “tumor weight at the end of the administration” value in the experiment with melanoma (B16F10) [5] (B16-F10 in C57BL/6 mice, GSK583 1 mg/kg, DTX 5 mg/kg i.v., DAY 16, vs control group) was “significantly and statistically lower than that of the control group”. Also, in the experiment on melanoma (B16F10) [5] (B16-F10 in C57BL/6 mice, GSK583 1 mg/kg, DTX 5 mg/kg i.v., vs control group), the “growth rate of tumor volume” value is “slower than that of the control group”. In the experiment with melanoma (B16F10) [5], the “tumor growth compared to the vehicle control group” value is reported as “significantly inhibited tumor growth”.

For the origin of these results see patent US20240423971A1, “APPLICATION OF RIP2 INHIBITOR COMBINED WITH CHEMOTHERAPY DRUG” (NINGBO COMBIREG PHARMACEUTICAL TECHNOLOGY CO., LTD., priority 2021, published 2024).
